Results taken from patent US6723736B2, “Tricyclic compounds and uses thereof” (Theracos, Inc., priority 2000, dated 2004).

Assays:
IL-10 production = test: Inhibition of LPS-induced IL-10 production in human PBMC (ELISA); format: cell-based; settings: human PBMC, 1, 10, 30 or 100 μM 1 hr preincubation, LPS 1 μg/ml 20 hr
Protocol: (§1) Human peripheral blood mononuclear cells (PBMC) were purified from human blood using Ficoll-Paque PLUS separation medium (Amersham Pharmacia Biotech) according to the manufacturer's recommended protocol. After centrifugation, the central PBMC layer was collected, washed twice with phosphate buffered saline (PBS) and then plated in a 96-well plate at a density of 2×10^5 cells/well in RPMI-1640 medium containing 10% FBS. The cells were preincubated with dexamethasone (1 μM) or Compound B (1, 10, 30 or 100 μM) for 1 hr and then challenged with LPS (1 μg/ml) for 20 hr. Cells receiving no drug treatment, incubated with or without LPS, served as controls. The cell supernatants were collected, and the amount of IL-10 in each was measured by standard ELISA. […] To confirm that the observed decrease in IL-10 was not due to cytotoxicity, the PBMC were plated in a separate plate, incubated for 20 hr with the same range of doses of Compound B, and the cell viability was assessed by a standard MTS dye exclusion assay (4-hr incubation with MTS).

IL-6 production = test: Inhibition of LPS-induced IL-6 production in RAW264.7 cells (ELISA); format: cell-based, murine; settings: RAW264.7, 1-100 μM compound 1 hr pre-incubation, LPS 0.1 μg/ml 6 hr
Protocol: (§2) The ability of compound B to inhibit IL-6 production was also examined in LPS-stimulated RAW cells. RAW264.7 cells were grown in RPMI-1640 medium containing 3% FBS and pre-incubated for 1 hr at 37° C. with varying concentrations (1, 3, 10, 30 or 100 μM) of compound B. LPS (0.1 μg/ml) was then added, and the cells were further incubated for 6 hr at 37° C. in a 5% carbon dioxide atmosphere. Cell supernatants were then collected, aliquoted, and assayed for IL-6 by ELISA with anti-IL-6 antibody.

[1] = system: TNF-alpha induced killing of WEHI-13VAR cells; test: Inhibition of TNF-alpha induced cell killing (MTT viability); format: cell-based, mouse
Protocol: Compounds B and E were tested for their ability to inhibit TNF-alpha induced killing of cultured mouse fibrosarcoma cells. WEHI-13VAR cells were grown in buffered RPMI-1640 medium containing 3% FBS and assayed for TNF-alpha induced cell death as described by Khabar et al. (Immunol Lett 46:107-10, 1995). Cells were co-incubated for 20 hr with 100 pg/ml (FIG. 1A) or 1 pg/ml (FIG. 1B) of TNF-alpha and 100 μg/ml of berberine, compound B or compound E. Controls included cells receiving TNF-alpha but no drug, as well as cells receiving no TNF-alpha and treated with or without NP-40 lysis buffer. Cell viability was assayed using the dye MTT (3-(4,5-dimethylthiozol-2-yl)-2,5-diphenyl tetrazolium bromide) as described.
The dose response was measured for the ability of compound B to inhibit TNF-alpha induced killing of cultured mouse fibrosarcoma cells. In this experiment, the inhibitory action of compound B was compared to that of a chimeric recombinant protein dimer containing soluble TNF receptor fused to the Fc portion of immunoglobulin heavy chain (Mohler KM et al., J Immunol 151:1548-61,1993), a known antagonist of TNF-alpha mediated cell killing. WEHI-13VAR cells were grown in buffered RPMI-1640 medium containing 3% FBS and assayed for TNF-alpha induced cell death as described by Khabar et al. (Immunol Lett 46:107-10, 1995). […]

COX-2 = target: T1, COX-2 (Mus musculus, UniProt Q05769); test: LPS-induced COX-2 activity in RAW264.7 cells (PGE2 EIA); format: cell-based, murine; settings: RAW264.7, LPS 0.1 μg/ml 6 hr; higher concentrations of compound B (1-100 μM tested); dexamethasone 1 μM
T1 construct: examined in LPS-stimulated RAW cells; endogenous in cells; host or cells: RAW264.7 cells, LPS-stimulated (0.1 µg/ml, 6 hr), then lysed
T1 sequence (Q05769 18-604): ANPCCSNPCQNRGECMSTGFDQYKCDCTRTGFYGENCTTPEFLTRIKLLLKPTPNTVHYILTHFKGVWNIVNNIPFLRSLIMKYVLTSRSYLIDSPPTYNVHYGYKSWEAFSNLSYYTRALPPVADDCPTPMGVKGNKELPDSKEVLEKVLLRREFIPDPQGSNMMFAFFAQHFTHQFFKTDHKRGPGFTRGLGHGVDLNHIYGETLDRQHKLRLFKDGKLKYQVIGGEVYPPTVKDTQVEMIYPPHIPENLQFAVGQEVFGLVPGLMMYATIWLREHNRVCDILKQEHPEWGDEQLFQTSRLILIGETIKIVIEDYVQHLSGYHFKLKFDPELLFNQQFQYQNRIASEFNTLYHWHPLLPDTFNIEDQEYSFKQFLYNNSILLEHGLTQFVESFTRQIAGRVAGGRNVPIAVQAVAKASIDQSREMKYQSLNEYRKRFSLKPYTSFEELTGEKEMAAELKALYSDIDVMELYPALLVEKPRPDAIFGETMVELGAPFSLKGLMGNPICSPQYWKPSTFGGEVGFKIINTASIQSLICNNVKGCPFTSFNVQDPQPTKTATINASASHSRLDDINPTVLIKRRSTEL
Protocol: (§3) In this experiment, the inhibitory effect of compound B was compared to that of dexamethasone, a potent inhibitor of COX-2 expression. RAW264.7 cells were grown in RPMI-1640 medium containing 3% FBS and pre-incubated for 1 hr at 37° C. with compound B (1, 3, 10, 30 or 100 μM), dexamethasone (Dex, 1 μM), or without drug. After 1 hr LPS (0.1 μg/ml) was added, and the cells were further incubated for 6 hr at 37° C. Control cells received neither drug nor LPS. Cells were collected, lysed and assayed for cyclooxygenase activities essentially according to the method of Brideau et al. (Inflamm Res 45:68-74, 1996). COX-2 activity was measured using the Biotrak Prostaglandin E2 (PGE2) EIA Kit, and COX-1 activity was determined using the Biotrak Thromboxane B2 (TXB2) EIA Kit, both from Amersham Pharmacia Biotech (Piscataway, N.J.).

TNF-alpha production = test: Inhibition of LPS-induced TNF-alpha production in RAW264.7 cells (ELISA); format: cell-based, murine; settings: RAW264.7, 1-100 μM compound 1 hr pre-incubation, LPS 0.1 μg/ml 6 hr
Protocol: as §2, with “TNF-alpha” for “IL-6”, “was” for “was also”, “a standard in vitro model of inflammation—the murine macrophage-like cell line RAW264.7 stimulated with lipopolysaccharides (LPS).” for “LPS-stimulated RAW cells.”, “anti-TNF-alpha” for “anti-IL-6”

[2] = system: Human peripheral blood mononuclear cells (PBMC); test: PBMC cell viability (MTS dye exclusion assay); format: cell-based; settings: 20 hr, 1-100 μM
Protocol: as §1

[3] = system: collagen-induced arthritis in male DBA/1 Lac mice; test: Suppression of collagen-induced arthritis in mice; format: in vivo; settings: 50 mg/kg orally daily for 17 days, compared to vehicle-treated group
Protocol: The ability of compound B to reduce inflammation in an animal model of arthritis was also studied. Arthritis was induced by intradermal administration of collagen (100 μg/mice) in complete adjuvant in male DBA/1 Lac mice 7 weeks old. The booster immunization (100 μg/mice) in incomplete adjuvant was given subcutaneously on day 21. Two days later, when arthritic scores were around 1, animals were divided into two groups. One group received 50 mg/kg dose of compound B orally for 17 days daily. The second group received 10% PEG in water and was used as a vehicle-treated group. Body weight (FIG. 6, panel A), clinical score (FIG. 6, panel B), the number of joints affected (FIG. 6, panel C) and paw thickness (FIG. 6, panel D) were monitored 24 hours after drug administration during the treatment period.

COX-1 = target: T2, COX-1 (Mus musculus, UniProt P22437); test: Constitutive COX-1 activity in RAW264.7 cells (TXB2 EIA); format: cell-based, murine; settings: RAW264.7, LPS 0.1 μg/ml 6 hr; higher concentrations of compound B (1-100 μM tested); dexamethasone 1 μM
T2 construct: having no effect on the constitutively expressed COX-1 activity; endogenous in cells; host or cells: RAW264.7 cells, then lysed
T2 sequence (P22437 27-602): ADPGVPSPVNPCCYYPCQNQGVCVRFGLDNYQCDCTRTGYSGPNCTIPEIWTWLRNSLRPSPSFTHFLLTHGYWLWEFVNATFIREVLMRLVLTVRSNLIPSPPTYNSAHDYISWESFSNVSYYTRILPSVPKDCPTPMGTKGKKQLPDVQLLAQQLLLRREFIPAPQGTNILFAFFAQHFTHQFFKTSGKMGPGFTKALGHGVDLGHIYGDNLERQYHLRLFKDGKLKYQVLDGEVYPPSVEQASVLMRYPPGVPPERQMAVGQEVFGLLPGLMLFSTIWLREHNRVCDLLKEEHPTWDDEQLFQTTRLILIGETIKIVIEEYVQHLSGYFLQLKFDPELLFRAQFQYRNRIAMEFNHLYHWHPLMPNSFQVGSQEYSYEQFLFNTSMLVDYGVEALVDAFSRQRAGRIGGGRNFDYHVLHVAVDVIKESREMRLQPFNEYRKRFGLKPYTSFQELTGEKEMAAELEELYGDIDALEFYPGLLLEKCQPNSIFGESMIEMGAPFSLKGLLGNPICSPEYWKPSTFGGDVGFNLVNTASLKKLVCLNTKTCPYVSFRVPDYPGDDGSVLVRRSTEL
Protocol: as §3

Q: With COc1ccc(-c2ncc3c(OC)c(OC)ccc3c2O)cc1 [Compound B] as the compound, how does the “inhibition of LPS-induced IL-10 production” value (IL-10 production) read?
A: dose-dependent inhibition

Q: What about the “inhibition of LPS-induced IL-6 production” value (IL-6 production) of the same compound?
A: up to 60%

Q: And the “concentration at which the maximal inhibitory effect on TNF-alpha induced cell killing was attained” value ([1]; 100 pg/ml or 50 pg/ml TNF-alpha, 20 hr, inhibition proportional to dose up to this concentration)?
A: 10 µM

Q: What about the “inhibition of TNF-alpha induced cell killing (increased cell viability)” value ([1]; 100 μg/ml compound, 100 pg/ml or 1 pg/ml TNF-alpha, 20 hr co-incubation, relative to untreated or berberine-treated cells) of the same compound?
A: inhibited TNF-alpha induced cell killing

Q: What about the “effect on inducible COX-2 activity” value (COX-2) of the same compound?
A: completely and selectively abrogated

Q: And the “inhibition of LPS-induced TNF-alpha production” value (TNF-alpha production)?
A: ~50%

Q: And the “loss in cell viability (cytotoxicity)” value [2]?
A: no significant loss in cell viability

Q: And the body weight [3]?
A: No change in body weight

Q: What about the clinical score [3] of the same compound?
A: significantly lower clinical scores

Q: And the “number of joints affected” value [3]?
A: fewer joints affected

Q: What about the paw thickness [3] of the same compound?
A: reduced paw thickness

Q: And the “effect on constitutively expressed COX-1 activity” value (COX-1)?
A: no effect
